Read-outs that look alike come from different tables or passages of the source.
Key:
Type in all cases: cell-based
[1] = tested on: HepG2 cells; assay: Measurement of cholesterol synthesis inhibitory ability (cholesterol content in cell lysates, Amplex red)
Experimental: (§1) 2 mM metformin was used as a comparative compound for each of the plates (control group).
A cholesterol synthesis inhibitory ability, which is an important function of AMPK (AMP-activated protein kinase), was measured using HepG2 cells (ATCC: American Type Culture Collection) as a hepatic cell model according to the following procedure.
The hepatic cell model HepG2 cells were cultured in 1% serum-containing media (DMEM (Gibco), FBS (Gibco)) for 24 hours, and then treated with 100 μM or 500 μM of each of the compounds prepared in Examples for 24 hours. Then, the cells were disrupted with a lysis solution (0.1 M potassium phosphate, pH 7.4, 0.05 M NaCl, 5 mM cholic acid, 0.1% Triton X-100 (Sigma)). To the disrupted cells was added the same volume of a reaction solution (2 U/mL of a cholesterol oxidizing agent, 2 U/mL of a peroxidase, 0.2 U/mL of a cholesterol esterase, and 300 μM of Amplex red as a fluorescent factor (Molecular Probe)), which was allowed to react at 37° C. for 30 minutes. After completion of the reaction, the content of cholesterol formed in the cell lysates was measured at a wavelength of 560/590 nm (ex/em) using a fluorescence microscope.
A lower measurement value means an increased cholesterol synthesis inhibitory ability.

[2] = tested on: C2C12 cells; assay: Measurement of glucose absorption ability (3H-deoxy-glucose uptake with insulin); conditions: 100 uM compound with 1 μM insulin, 24 hours, differentiated C2C12, higher value = stronger, more than 200% counts as glucose absorption ability
Experimental: as §1
C2C12 cells (ATCC: American Type Culture Collection), a muscle cell model, were induced to differentiate into muscle cells in 2% bovine fetal serum-containing media (DMEM (Gibco), FBS (Gibco)) for 6 days. The C2C12 cells which differentiated into muscle cells were transferred to serum-free low glucose media (DMEM (Gibco), FBS (Gibco)), treated with 100 μM of each of the compounds, and then cultured with 1 μM of insulin for 24 hours. After cultivation, the cells were treated with 1 μCi ^3H-deoxy-glucose (Amersham Pharmacia) and 10 μM deoxy-glucose (Sigma) at 37° C. for 15 minutes. The media were removed therefrom, and the cells were washed twice with PBS (phosphate buffered saline). The washed cells were treated with 0.1N NaOH and neutralized with 1N HCl. The content of glucose absorbed into the cells was measured with a liquid scintillation counter.
A higher measurement value means a stronger ability to reduce insulin resistance.

[3] = tested on: HepG2 cells; assay: Measurement of triglyceride (triglyceride content in cell lysates, Amplex red)
Experimental: as §1
HepG2 cells (ATCC: American Type Culture Collection) were cultured in 1% serum-containing media (DMEM (Gibco), FBS (Gibco)) for 24 hours, and then treated with 100 μM or 500 μM of each of the compounds prepared in Examples for 24 hours. Then, the cells were disrupted with a lysis solution (0.1 M potassium phosphate, pH 7.4, 0.05 M NaCl, 5 mM cholic acid, 0.1% Triton X-100). […] After completion of the reaction, the content of triglyceride formed in the cell lysates was measured at a wavelength of 560/590 nm (ex/em) using a fluorescence microscope.
A lower measurement value means an increased triglyceride synthesis inhibitory ability.

[4] = tested on: HepG2 cells; assay: Measurement of gluconeogenesis inhibitory ability (14C-lactate, glucose formed in cells)
Experimental: as §1
HepG2 cells (ATCC: American Type Culture Collection) were cultured in 10% serum-containing high glucose media, transferred to no serum-containing low glucose media (DMEM (Gibco), FBS (Gibco)), and then treated with 100 μM of each of the compounds for 24 hours. Then, the cells were treated with 0.5 μCi ^14C-lactate (Amersham Pharmacia) and 10 mM L-lactate (Sigma), and cultured for 4 hours. After cultivation, the media were removed therefrom, and the cells were washed with PBS, treated with 0.1N NaOH and kept at room temperature for 1 hour. Then, the cells were neutralized with 1N HCl, and the content of glucose formed in the cells was measured with a liquid scintillation counter.
A lower measurement value means an increased gluconeogenesis inhibitory ability.

[5] = 100 uM compound, 24 hours, HepG2, lower value = stronger cholesterol synthesis inhibition
[6] = 500 uM compound, 24 hours, HepG2, lower value = stronger cholesterol synthesis inhibition
[7] = 100 uM compound, 24 hours, HepG2, lower value = stronger triglyceride synthesis inhibition
[8] = 500 uM compound, 24 hours, HepG2, lower value = stronger triglyceride synthesis inhibition
[9] = 100 uM compound, 24 hours, HepG2, lower value = stronger gluconeogenesis inhibition
[10] = 100 uM compound, 24 hours, HepG2, lower value = stronger gluconeogenesis inhibition, 100 µM

Row | Compound | Cholesterol (100 uM) Aver. [1, 5] | Cholesterol (500 uM) Aver. [1, 6] | Glucose absorption (100 uM) Aver. [2] [%] | Triglyceride (100 uM) Aver. [3, 7] | Triglyceride (500 uM) Aver. [3, 8] | Gluconeogenesis inhibition (100 uM) Aver. [4, 9] | also measured
1 | CCCCCCN=C(NCCc1cccs1)NC(=N)N.Cl [Example 4, N1-2-(thiophen-2-ylethyl)-N2-hexyl biguanide hydrochloride] | 33.81 | 51.74 | 14.31 | 22.80 | 3.22 | 26.40 | 
2 | CCCCN=C(NCCc1cccs1)NC(=N)N.Cl [Example 26, N1-2-(thiophen-2-ylethyl)-N2-butyl biguanide hydrochloride (isomer)] | 43.20 | 13.28 | 18.34 | 47.59 | 30.67 |  | Gluconeogenesis inhibition (100 uM) Aver. [4, 10]: 81.70
3 | Cl.N=C(N)NC(=Nc1cccc(C(F)(F)F)c1)NCCc1cccs1 [Example 14, N1-2-(thiophen-2-ylethyl)-N2-(3-trifluoromethyl)phenyl biguanide hydrochloride] | 23.3 | 41.4 | 4.38 | 11.8 | 13.2 | 8.75 | 
4 | Cl.N=C(N)NC(=NC1CCCC1)NCCc1cccs1 [Example 21, N1-2-(thiophen-2-ylethyl)-N2-cyclopentyl biguanide hydrochloride] | 68.2 | 45.8 | 174.8 | 80.5 | 85.6 | 97.66 | 
5 | Cl.N=C(N)NC(=Nc1cccc2ccccc12)NCCc1cccs1 [Example 3, N1-2-(thiophen-2-ylethyl)-N2-1-naphthyl biguanide hydrochloride] | 30.90 | 31.14 | 15.10 | 5.28 | −6.37 | 3.73 | 
6 | COc1ccc(OC)c(N=C(NCCc2cccs2)NC(=N)N)c1.Cl [Example 31, N1-2-(thiophen-2-ylethyl)-N2-(2,5-dimethoxyphenyl) biguanide hydrochloride] |  |  |  |  |  |  | Cholesterol (100 uM) Aver. ([1]; 100 uM compound, 24 hours, HepG2, lower value = stronger cholesterol synthesis inhibition, hydrochloride): 75.67; Cholesterol (500 uM) Aver. ([1]; 500 uM compound, 24 hours, HepG2, lower value = stronger cholesterol synthesis inhibition, hydrochloride): 49.39; Glucose absorption (100 uM) Aver. ([2]; hydrochloride): 168.20%; Triglyceride (100 uM) Aver. ([3]; 100 uM compound, 24 hours, HepG2, lower value = stronger triglyceride synthesis inhibition, hydrochloride): 81.74; Triglyceride (500 uM) Aver. ([3]; 500 uM compound, 24 hours, HepG2, lower value = stronger triglyceride synthesis inhibition, hydrochloride): 57.32; Gluconeogenesis inhibition (100 uM) Aver. ([4]; 100 uM compound, 24 hours, HepG2, lower value = stronger gluconeogenesis inhibition, hydrochloride, 100 µM): 96.29
7 | CN=C(NCCc1sccc1C)NC(=N)N.Cl [Example 45, N1-2-(3-methylthiophen-2-ylethyl)-N2-methyl biguanide hydrochloride] | 77.03 | 63.78 | 264.76 | 92.38 | 89.00 | 94.51 | 
8 | COCCN=C(NCCc1cccs1)NC(=N)N.Cl [Example 24, N1-2-(thiophen-2-ylethyl)-N2-methoxyethyl biguanide hydrochloride] | 92.58 | 75.75 | 114.91 | 77.91 | 71.93 | 78.89 | 
9 | Cl.N=C(N)NC(=Nc1cccc(Br)c1)NCCc1cccs1 [Example 34, N1-2-(thiophen-2-ylethyl)-N2-(3-bromophenyl) biguanide hydrochloride] | 26.00 | 32.53 | 6.05 | 26.57 | 19.49 | 4.96 | 
10 | Cl.N=C(N)NC(=NCc1ccccc1)NCCc1cccs1 [Example 8, N1-2-(thiophen-2-ylethyl)-N2-t-benzyl biguanide hydrochloride] | 37.77 | 7.28 | 243.3 | 77.65 | 30.78 | 81.27 | 
11 | COc1ccc(N=C(NCCc2cccs2)NC(=N)N)cc1.Cl [Example 30, N1-2-(thiophen-2-ylethyl)-N2-(4-methoxyphenyl) biguanide hydrochloride (isomer)] | 73.64 | 26.15 | 148.42 | 91.91 | 48.42 |  | Gluconeogenesis inhibition (100 uM) Aver. [4, 10]: 105.18
12 | CC(C)CN=C(NCCc1cccs1)NC(=N)N.Cl [Example 42, -2-(thiophen-2-ylethyl)-N2-isobutyl biguanide hydrochloride] | 89.11 | 73.15 | 171.92 | 97.66 | 88.50 | 99.91 | 
13 | N1-2-(thiophen-2-ylethyl)-N2-(4-bromobenzyl) biguanide hydrochloride [Example 37] |  |  | 7.71 |  |  |  | Cholesterol (100 uM) Aver. [1]: 28.36; Cholesterol (500 uM) Aver. [1]: 30.84; Triglyceride (100 uM) Aver. [3]: 61.41; Triglyceride (500 uM) Aver. [3]: 20.15; Gluconeogenesis inhibition (100 uM) Aver. [4]: 89.96
14 | CCCCCN=C(NCCc1cccs1)NC(=N)N.Cl [Example 23, N1-2-(thiophen-2-ylethyl)-N2-pentyl biguanide hydrochloride] | 11.05 | 15.66 | 0.00 | 13.83 | 17.16 | 2.96 | 
15 | CCCN=C(NCCc1cccs1)NC(=N)N.Cl [Example 13, N1-2-(thiophen-2-ylethyl)-N2-propyl biguanide hydrochloride] | 77.1 | 61.7 | 110.2 | 59.3 | 48.9 | 73.51 | 
16 | COc1cc(N=C(NCCc2cccs2)NC(=N)N)cc(OC)c1.Cl [Example 32, N1-2-(thiophen-2-ylethyl)-N2-(3,5-dimethoxyphenyl) biguanide hydrochloride] | 48.02 | 26.70 | 11.68 | 70.80 | 28.47 | 152.19 | 
